This is an account of results in patent publication US20240261418A1, “SOS1 DEGRADING AGENT AND PREPARATION METHOD THEREFOR AND APPLICATION THEREOF” (SHANGHAI LEADINGTAC PHARMACEUTICAL CO. LTD., priority 2021, published 2024).

pIC50: −log10 of the molar value.

One assay concerns the target T1, KRAS-G12C/SOS1 (Homo sapiens, UniProt Q07889).
T1 construct: purchased Cisbio 63ADK000CB16PEG
T1 sequence (Q07889 1-1333): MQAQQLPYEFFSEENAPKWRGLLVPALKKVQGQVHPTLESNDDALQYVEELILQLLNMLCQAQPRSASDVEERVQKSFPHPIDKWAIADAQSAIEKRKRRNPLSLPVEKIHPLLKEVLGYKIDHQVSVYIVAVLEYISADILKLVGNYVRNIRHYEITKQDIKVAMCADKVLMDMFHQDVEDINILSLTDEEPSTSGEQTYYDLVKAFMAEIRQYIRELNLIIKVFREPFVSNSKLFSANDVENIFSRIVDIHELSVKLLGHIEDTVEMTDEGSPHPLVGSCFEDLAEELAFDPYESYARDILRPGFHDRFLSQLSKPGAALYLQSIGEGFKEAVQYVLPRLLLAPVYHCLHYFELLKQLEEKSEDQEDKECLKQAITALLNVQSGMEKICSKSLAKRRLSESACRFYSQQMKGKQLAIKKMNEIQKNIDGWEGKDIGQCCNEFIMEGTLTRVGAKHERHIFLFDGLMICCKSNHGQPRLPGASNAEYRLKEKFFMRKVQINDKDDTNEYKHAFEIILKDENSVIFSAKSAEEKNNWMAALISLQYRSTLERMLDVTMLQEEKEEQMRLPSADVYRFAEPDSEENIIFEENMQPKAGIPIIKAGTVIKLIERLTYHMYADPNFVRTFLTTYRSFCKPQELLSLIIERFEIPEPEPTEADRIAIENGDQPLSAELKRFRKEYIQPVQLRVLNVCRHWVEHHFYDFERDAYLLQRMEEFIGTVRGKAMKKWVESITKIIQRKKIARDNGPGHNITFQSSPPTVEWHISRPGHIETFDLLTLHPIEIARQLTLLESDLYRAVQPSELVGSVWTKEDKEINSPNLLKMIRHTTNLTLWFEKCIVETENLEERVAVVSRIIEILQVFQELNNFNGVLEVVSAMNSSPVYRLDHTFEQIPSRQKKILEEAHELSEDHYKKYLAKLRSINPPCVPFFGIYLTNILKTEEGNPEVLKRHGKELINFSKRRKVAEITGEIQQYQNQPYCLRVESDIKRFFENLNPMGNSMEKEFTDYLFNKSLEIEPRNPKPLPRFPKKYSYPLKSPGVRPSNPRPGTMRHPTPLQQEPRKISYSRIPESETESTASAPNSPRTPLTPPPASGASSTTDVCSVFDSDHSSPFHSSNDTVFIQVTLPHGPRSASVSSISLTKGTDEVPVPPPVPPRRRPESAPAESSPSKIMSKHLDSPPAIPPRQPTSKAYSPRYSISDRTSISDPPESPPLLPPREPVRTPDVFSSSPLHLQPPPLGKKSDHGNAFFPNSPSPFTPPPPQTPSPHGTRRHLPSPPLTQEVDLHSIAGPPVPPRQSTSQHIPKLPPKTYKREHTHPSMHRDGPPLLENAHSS
Description: KRAS-G12C/SOS1 binding assay (HTRF). Particulars: inhibition of KRAS-G12C/SOS1 binding. The method, then: Test Example 1: KRAS-G12C/SOS1 Binding Assay
The following method was used to determine the extent of inhibition of KRAS-G12C/SOS1 binding by the preferred compounds of the present invention under in vitro conditions. In this method, the competitive inhibition of KRAS-G12C/SOS1 binding by the preferred compounds was assayed by the homogeneous time-resolved fluorescence (HTRF) technology using the KRAS-G12C/SOS1 binding assay kit (Cisbio, 63ADK000CB16PEG).
The experimental procedures were as follows (refer to the kit instructions for details): the compounds of the present invention were each firstly dissolved in DMSO at a concentration of 20 mM, and then diluted in an equal gradient with a buffer in the kit, so that the final concentrations of the test compounds in the reaction system were in a range of 10000 nM-0.04 nM, and the final concentration of DMSO was 0.5%. 2 μL of the compounds were each incubated with 4 μL of 1×Tag1-SOS1, 4 μL of 1×Tag2-KRAS-G12C (containing 10 μM guanosine triphosphate, GTP) at 25° C. for 15 min. Then 5 μL of 1×Anti-Tag1-Tb3+ and 5 μL of 1×Anti-Tag2-XL665 were added to the reaction system, and the mixture was incubated on ice for 3 h. After the incubation, the fluorescence intensity of each well was measured at the excitation wavelength of 337 nm, the fluorescence intensity of each well was read at the emission wavelengths of 620 nm and 665 nm on a microplate reader EnVision (PerkinElmer, 2105) in an HTRF mode, and the Ratio value was calculated by the formula Ratio=(665 nm/620 nm)×[…]. The inhibition rates of the compounds at each concentration were calculated by comparing the fluorescence intensity ratio with that of the control group, and then nonlinear curve fitting was performed by GraphPad Prism 8 in the logarithmic concentration-inhibition rate to obtain the IC50 values of the compounds, as shown in Table 1.
A general note: In TR-FRET formats the signal depends on donor and acceptor labels being close together.

For a further assay, the target named is T2, SOS1 protein (Homo sapiens, UniProt Q07889).
T2 sequence (Q07889 1-1333): T1 sequence (Q07889 1-1333)
Description: SOS1 degradation assay (Western blot) in NCI-H358 cells. The assay is classed as cell-based. Particulars: NCI-H358 (KRAS G12C), 24 h. The method, then: The specific procedures were as follows:
0.95 mL of cells were seeded into each well of a 24-well cell culture plate to achieve a cell density of 5×10^5 cells/well; the cell plate was incubated in an incubator at 37° C. with 5% CO2 overnight. Then 50 μL of the compound solution after dilution was added to each of the wells with the corresponding cells, so that the final concentration of the compound was in a range of 0.03-3000 nM.
After dosing, the cell plate was incubated in an incubator at 37° C. with 5% CO2 for 24 h. […] After the plate was left to stand on ice for 30 min, the protein lysate in each well was transferred to a 1.5 mL centrifuge tube and centrifuged at 15000 g for 20 min at 4° C. The cell lysate supernatant after centrifugation was cryopreserved at −80° C. for testing and was used for determining the degradation level of the SOS1 protein by a WB method. The concentration of total protein in the cell lysate supernatant was determined using the BCA Protein Quantification Kit (Tiangen, PA115-02).
The concentration of total protein in the cell lysate was determined by BCA. The total protein was adjusted to 0.5 μg/μL with PBS and 5×SDS- PAGE protein loading buffer (Beyotime, P001L), incubated in a water bath at 100° C. for 15 min, incubated in an ice bath on ice for 5 min, centrifuged at 14000 g for 1 min at 4° C., and mixed well as a loading sample for WB. Protein electrophoresis was performed on a precast gel (KeyGEN, KGMG010W15) with a loading volume of 10 μL (total protein: 5 μg) using a Tris-MOPS-SDS running solution (Adamas, P1598253) at a constant voltage of 120 V for 55 min. After the electrophoresis, the protein on the gel strip was transferred to a PVDF membrane at a constant current of 250 mA for 65 min. After the membrane transfer, the membrane was incubated in 1× QuickBlock blocking buffer (Beyotime, P0235) for 30 min at room temperature. […] The protein map was subjected to gray value analysis by the chemiluminescence imaging system from Clinx. […] Then the degradation rate was calculated by comparing the gray correction value with the gray correction value of the control group. Then nonlinear curve fitting was performed by GraphPad Prism 8 in the logarithmic concentration-inhibition rate to obtain the DC50 and Dmax values of the compounds.
Background: In western blotting, separated proteins are transferred to a membrane and probed.

In the case of `COc1cc2nc(C)nc(N[C@H](C)c3cc(-c4ccccc4CN(C)C)cs3)c2cc1[C@H]1CC[C@H](C(=O)N2CCN(CC3CCC4(CC3)CCN(C(=O)c3ccc(Cl)c(N5CCC(=O)NC5=O)c3)CC4)CC2)CC1` [Example 4, 1-(2-chloro-5-(9-((4-((1R,4R)-4-(4-(((R)-1-(4-(2-((dimethylamino)methyl)phenyl)thien-2-yl)ethyl)amino)-7-methoxy-2-methylquinazolin-6-yl)cyclohexane-1-carbonyl)piperazin-1-yl)methyl)-3-azaspiro[5.5]undecane-3-carbonyl)phenyl)dihydropyrimidine-2,4(1H,3H)-dione], on KRAS-G12C/SOS1, the pIC50 (in general, the IC50 on a negative log10 scale, so that one unit is a factor of ten) was at least 7.82. In addition, at SOS1 protein, the DC50 (commonly the midpoint of the concentration-degradation curve) lay within 50 to 100 nM and the Dmax (as a rule, the greatest extent of degradation seen) is 80 to 100%.
